Article PMC10355420, “The glutathione import system satisfies the Staphylococcus aureus nutrient sulfur requirement and promotes interspecies competition” (PLOS Genetics, 2023)

Target: T1, recombinant GisA, SAUSA300_0200 (Staphylococcus aureus, UniProt A0A0H2XI71)
T1 construct: His-tagged, pET28b, purified from E. coli slyD mutant by Ni-NTA; ATPase subunit alone
T1 sequence (A0A0H2XI71 1-530): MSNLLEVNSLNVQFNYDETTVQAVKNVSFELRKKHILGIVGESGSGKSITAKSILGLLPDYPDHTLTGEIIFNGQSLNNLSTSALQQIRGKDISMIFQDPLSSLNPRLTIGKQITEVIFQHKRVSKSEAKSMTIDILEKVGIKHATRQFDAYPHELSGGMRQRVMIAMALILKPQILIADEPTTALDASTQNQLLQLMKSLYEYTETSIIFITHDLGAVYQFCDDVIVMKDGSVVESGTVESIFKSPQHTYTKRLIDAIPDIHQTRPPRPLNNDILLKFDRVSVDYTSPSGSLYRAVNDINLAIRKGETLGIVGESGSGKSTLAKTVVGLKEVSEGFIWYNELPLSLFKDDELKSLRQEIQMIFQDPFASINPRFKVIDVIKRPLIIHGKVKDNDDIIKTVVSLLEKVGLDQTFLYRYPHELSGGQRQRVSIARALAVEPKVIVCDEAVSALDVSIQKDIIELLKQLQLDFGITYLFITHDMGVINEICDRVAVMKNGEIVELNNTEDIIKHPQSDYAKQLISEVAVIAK
Assay: ATP hydrolysis assay
Assay type: biochemical
Details: GisA alone; details only in supplement

Nc1ncnc2c1ncn2[C@@H]1O[C@H](COP(=O)(O)OP(=O)(O)OP(=O)(O)O)[C@@H](O)[C@H]1O [ATP]
ATP hydrolysis assay: recombinant GisA purified from Escherichia coli exhibits ATP hydrolysis activity
